Literature values as cited in patent US20110042247A1 (priority 2009, published 2011).
Like-named read-outs stand apart in the source and are kept apart here.

Row | Solubility (dimethylsulphoxide (DMSO)) | Solubility (ethanol and water (50:50)) | Solubility (methanol) | Solubility (methanol/water (50/50)) | Solubility (water) | Solubility (5% Tween 80 in water) | Solubility (5% dextrose in water) | Solubility (N-methylpyrrolidone) | Solubility (acetone) | Solubility (ethanol) | Solubility (methyl ethyl ketone) | Solubility (normal saline) | Solubility (polyethylene glycol) | Solubility (propylene glycol) | Solubility (water saturated octanol) | Structure (SMILES)
1 | soluble | slightly soluble | slightly soluble | slightly soluble | sparingly soluble | – | – | – | – | – | – | – | – | – | – | Nc1ncn([C@H]2C[C@H](O)[C@@H](CO)O2)c(=O)n1 [Decitabine, 4-amino-1-(2-deoxy-β-D-erythro-pentofuranosyl)-1,3,5-triazin-2(1H)-one]
2 | soluble | slightly soluble | – | – | sparingly soluble | sparingly soluble | sparingly soluble | sparingly soluble | insoluble | insoluble | insoluble | sparingly soluble | slightly soluble | slightly soluble | sparingly soluble | Nc1ncn([C@@H]2O[C@H](CO)[C@@H](O)[C@H]2O)c(=O)n1 [Azacitidine, 4-amino-1-β-D-ribofuranosyl-1,3,5-triazin-2(1H)-one]
